{"source": "paper PMC12378631", "about": "“Novel macrocyclic peptidomimetics targeting the insulin-regulated aminopeptidase (IRAP): design, synthesis and evaluation” (RSC Medicinal Chemistry, 2025)", "key": {"[1]": {"biological_target": "insulin-regulated aminopeptidase (IRAP) (Homo sapiens, UniProt Q9UIQ6)", "sequence (Q9UIQ6 whole entry)": "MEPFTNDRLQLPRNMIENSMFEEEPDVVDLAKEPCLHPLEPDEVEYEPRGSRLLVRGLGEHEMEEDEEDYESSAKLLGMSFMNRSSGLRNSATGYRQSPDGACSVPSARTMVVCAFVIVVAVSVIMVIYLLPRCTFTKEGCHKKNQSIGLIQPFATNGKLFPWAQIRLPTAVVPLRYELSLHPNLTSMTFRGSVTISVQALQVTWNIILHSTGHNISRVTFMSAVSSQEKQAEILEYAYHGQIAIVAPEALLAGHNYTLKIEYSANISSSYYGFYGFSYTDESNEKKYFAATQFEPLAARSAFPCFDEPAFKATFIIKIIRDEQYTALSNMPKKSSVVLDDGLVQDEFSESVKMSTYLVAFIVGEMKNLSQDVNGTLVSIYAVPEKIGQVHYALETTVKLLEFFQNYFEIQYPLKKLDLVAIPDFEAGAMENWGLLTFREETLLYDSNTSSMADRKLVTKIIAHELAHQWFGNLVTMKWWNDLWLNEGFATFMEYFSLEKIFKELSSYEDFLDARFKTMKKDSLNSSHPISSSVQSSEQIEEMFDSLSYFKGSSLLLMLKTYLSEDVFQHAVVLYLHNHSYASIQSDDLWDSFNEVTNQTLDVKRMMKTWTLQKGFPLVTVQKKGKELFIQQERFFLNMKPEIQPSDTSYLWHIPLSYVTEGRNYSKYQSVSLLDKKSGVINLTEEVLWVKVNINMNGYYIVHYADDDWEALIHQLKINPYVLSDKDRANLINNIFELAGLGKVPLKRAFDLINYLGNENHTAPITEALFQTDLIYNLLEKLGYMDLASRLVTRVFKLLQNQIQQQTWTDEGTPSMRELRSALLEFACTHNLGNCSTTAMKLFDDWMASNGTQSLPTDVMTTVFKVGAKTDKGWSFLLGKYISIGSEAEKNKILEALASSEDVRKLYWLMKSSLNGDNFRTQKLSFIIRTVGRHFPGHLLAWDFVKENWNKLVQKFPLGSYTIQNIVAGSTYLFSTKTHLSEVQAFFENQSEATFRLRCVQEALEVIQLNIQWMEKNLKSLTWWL", "conditions": "for IC50 higher than compound 37: compared with compound 37"}, "[2]": {"conditions": "cited from earlier work"}, "[3]": {"test_system": "dendritic spine density in the hippocampus", "design": "method as in PMID 26769413", "conditions": "cited from earlier work"}, "[4]": {"test_system": "rodent models of cognitive impairment", "design": "method as in PMID 10234025, PMID 11707427, PMID 3252173, PMID 14980384", "conditions": "cited from earlier work"}}}
{"compound": "N[C@H]1CCSSC[C@@H](C(=O)NCc2cccc(C(=O)O)c2)NC(=O)C[C@H](Cc2ccc(O)cc2)NC1=O", "note": "[Compound 38]", "values": [{"measurement": "IC50", "setting": "[1]", "value": 906, "unit": "nM"}, {"measurement": "IC50 higher than compound 37", "setting": "[1]", "value": 14, "unit": "fold"}]}
{"compound": "N[C@H]1CCSSC[C@@H](C(=O)NCc2ccc(C(=O)O)cc2)NC(=O)C[C@H](Cc2ccc(O)cc2)NC1=O", "note": "[Compound 39]", "values": [{"measurement": "IC50", "setting": "[1]", "value": 2950, "unit": "nM"}, {"measurement": "IC50 higher than compound 37", "setting": "[1]", "value": 46, "unit": "fold"}]}
{"compound": "N[C@H]1CCSSC[C@@H](C(=O)NCc2ccccc2CC(=O)O)NC(=O)C[C@H](Cc2ccc(O)cc2)NC1=O", "note": "[HA08]", "values": [{"measurement": "susceptibility to proteolytic degradation in vivo", "setting": "[2]", "value": "susceptible to proteolytic degradation in vivo"}, {"measurement": "dendritic spine density in the hippocampus", "setting": "[3]", "value": "increase dendritic spine density in the hippocampus"}]}
{"compound": "Val–Tyr–Ile–His–Pro–Phe [Ang IV]", "values": [{"measurement": "performance in rodent models of cognitive impairment", "setting": "[4]", "value": "improves performance in rodent models of cognitive impairment"}]}
